# Laboratory results as given in ChEMBL document CHEMBL1142775, “Functionalized head-to-head hairpin polyamides: synthesis, double-stranded DNA-binding activity and affinity” (Bioorg Med Chem Lett, 2005).
# Target: Nucleic Acid
# Assay: Dissociation constant of conjugate DNA complexes in 0.05 HEPES buffer of pH 7.3, at room temperature
# Format: nucleic-acid assay
row,Kd,SMILES
1,18 nM,CCCCC(=O)NCCCCCCOP(=O)(NCCCC(=O)Nc1cc(C(=O)Nc2cc(C(=O)Nc3cc(C(=O)NCCCC(=O)Nc4cc(C(=O)Nc5cc(C(=O)Nc6cc(C(=O)NCCCN(C)C)n(C)c6)n(C)c5)n(C)c4)n(C)c3)n(C)c2)n(C)c1)NCCCC(=O)Nc1cc(C(=O)Nc2cc(C(=O)Nc3cc(C(=O)NCCCC(=O)Nc4cc(C(=O)Nc5cc(C(=O)Nc6cc(C(=O)NCCCN(C)C)n(C)c6)n(C)c5)n(C)c4)n(C)c3)n(C)c2)n(C)c1
2,4.3 nM,CCCCC(=O)N(CC(=O)NCCCC(=O)Nc1cc(C(=O)Nc2cc(C(=O)Nc3cc(C(=O)NCCCC(=O)Nc4cc(C(=O)Nc5cc(C(=O)Nc6cc(C(=O)NCCCN(C)C)n(C)c6)n(C)c5)n(C)c4)n(C)c3)n(C)c2)n(C)c1)CC(=O)NCCCC(=O)Nc1cc(C(=O)Nc2cc(C(=O)Nc3cc(C(=O)NCCCC(=O)Nc4cc(C(=O)Nc5cc(C(=O)Nc6cc(C(=O)NCCCN(C)C)n(C)c6)n(C)c5)n(C)c4)n(C)c3)n(C)c2)n(C)c1
3,4.8 nM,CCCCC(=O)NCCCN(CC(=O)NCCCC(=O)Nc1cc(C(=O)Nc2cc(C(=O)Nc3cc(C(=O)NCCCC(=O)Nc4cc(C(=O)Nc5cc(C(=O)Nc6cc(C(=O)NCCCN(C)C)n(C)c6)n(C)c5)n(C)c4)n(C)c3)n(C)c2)n(C)c1)CC(=O)NCCCC(=O)Nc1cc(C(=O)Nc2cc(C(=O)Nc3cc(C(=O)NCCCC(=O)Nc4cc(C(=O)Nc5cc(C(=O)Nc6cc(C(=O)NCCCN(C)C)n(C)c6)n(C)c5)n(C)c4)n(C)c3)n(C)c2)n(C)c1

row,SMILES,Kd
1,CN(C)CCCNC(=O)c1cc(NC(=O)c2cc(NC(=O)c3cc(NC(=O)CCCNC(=O)c4cc(NC(=O)c5cc(NC(=O)c6cc(NC(=O)CCCNP(=O)(CCCCN7C(=O)c8ccccc8C7=O)NCCCC(=O)Nc7cc(C(=O)Nc8cc(C(=O)Nc9cc(C(=O)NCCCC(=O)Nc%10cc(C(=O)Nc%11cc(C(=O)Nc%12cc(C(=O)NCCCN(C)C)n(C)c%12)n(C)c%11)n(C)c%10)n(C)c9)n(C)c8)n(C)c7)cn6C)cn5C)cn4C)cn3C)cn2C)cn1C,34 nM
